Reference: US20070111328A1, “Scintillation proximity assay for the identification of P-glycoprotein modulators” (priority 2005, published 2007)

Assays:
P-glycoprotein (P-gp) [1] = biological target: T1, P-glycoprotein (P-gp) (Homo sapiens, UniProt P08183); assay: SPA saturation binding of [3H]-vinblastine to P-gp (KB-V1 cell membranes); design: endogenous in cells; host or cells: KB-V1 cells (multidrug-resistant subclone of KB-3-1, HeLa-derived); sucrose-gradient purified plasma membranes; conditions: [3H]-vinblastine 5 to 55 nM, specific binding fitted with Prism; read-out: KD (binding dissociation constant)
Procedure: The specific signal values versus the amount of radioligand was fitted to the equation using the Prism software (GraphPad Software Inc, San Diego, Calif.) as the following: [formula] where Bmax is the maximal binding, [L] is a ligand concentration, and KD is the binding dissociation constant. The fitting gave the KD value of 4 nM, which is in agreement with literature data.

P-glycoprotein (P-gp) [2] = biological target: T1, P-glycoprotein (P-gp); assay: Scintillation proximity assay (SPA): competition with [3H]vinblastine binding to P-gp in KB-V1 cell membranes; conditions: mean of triplicates; for effect of test compound on P-gp specific binding signal: test compound 10 μM final concentration, FIG. 8
Procedure: The samples were incubated for an additional 3 to 24-hours.
The methods described herein are based on the scintillation proximity assay (SPA) technique and its use to detect signal changes in the presence of a test compound. […] The signal should be reduced when the test compound is a P-gp substrate and/or inhibitor because of competition on the binding site or inhibition of the binding.

T1 sequence (P08183 whole entry): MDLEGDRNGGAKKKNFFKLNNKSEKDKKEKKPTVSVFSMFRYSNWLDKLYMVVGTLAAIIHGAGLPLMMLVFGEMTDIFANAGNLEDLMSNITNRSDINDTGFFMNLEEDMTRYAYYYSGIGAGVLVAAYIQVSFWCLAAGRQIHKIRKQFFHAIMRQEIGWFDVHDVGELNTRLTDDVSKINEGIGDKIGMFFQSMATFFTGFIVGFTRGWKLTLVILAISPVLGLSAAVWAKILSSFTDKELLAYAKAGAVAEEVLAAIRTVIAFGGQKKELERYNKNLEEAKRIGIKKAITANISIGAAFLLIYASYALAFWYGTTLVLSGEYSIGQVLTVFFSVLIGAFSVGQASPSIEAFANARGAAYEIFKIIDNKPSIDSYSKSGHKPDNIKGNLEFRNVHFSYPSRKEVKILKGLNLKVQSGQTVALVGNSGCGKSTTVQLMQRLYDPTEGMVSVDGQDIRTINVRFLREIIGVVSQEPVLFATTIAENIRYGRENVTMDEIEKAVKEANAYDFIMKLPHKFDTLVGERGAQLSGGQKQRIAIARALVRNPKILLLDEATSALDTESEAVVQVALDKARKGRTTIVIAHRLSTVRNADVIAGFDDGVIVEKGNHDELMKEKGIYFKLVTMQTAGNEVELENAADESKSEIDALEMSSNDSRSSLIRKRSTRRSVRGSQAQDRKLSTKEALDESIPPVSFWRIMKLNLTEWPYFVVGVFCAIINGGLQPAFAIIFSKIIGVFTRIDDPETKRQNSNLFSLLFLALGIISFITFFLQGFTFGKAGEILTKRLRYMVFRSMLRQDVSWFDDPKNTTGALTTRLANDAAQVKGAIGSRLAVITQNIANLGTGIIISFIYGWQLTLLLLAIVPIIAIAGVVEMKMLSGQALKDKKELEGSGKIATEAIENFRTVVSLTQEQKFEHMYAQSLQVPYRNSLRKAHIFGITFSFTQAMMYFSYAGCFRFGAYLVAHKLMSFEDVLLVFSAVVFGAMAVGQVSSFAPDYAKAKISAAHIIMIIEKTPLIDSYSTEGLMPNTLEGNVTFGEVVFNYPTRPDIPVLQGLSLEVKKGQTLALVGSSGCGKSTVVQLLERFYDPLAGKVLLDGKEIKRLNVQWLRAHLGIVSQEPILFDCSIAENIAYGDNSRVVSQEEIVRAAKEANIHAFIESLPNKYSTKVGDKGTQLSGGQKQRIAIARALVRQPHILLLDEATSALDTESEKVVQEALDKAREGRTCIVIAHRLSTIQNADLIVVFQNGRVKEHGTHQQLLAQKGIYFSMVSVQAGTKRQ

Molecule	effect of test compound on P-gp specific binding signal (P-glycoprotein (P-gp) [2])	also measured
CC[C@]1(O)C[C@@H]2CN(CCc3c([nH]c4ccccc34)[C@@](C(=O)OC)(c3cc4c(cc3OC)N(C)[C@H]3[C@@](O)(C(=O)OC)[C@H](OC(C)=O)[C@]5(CC)C=CCN6CC[C@]43[C@@H]65)C2)C1 [[^3H]-vinblastine]		Kd (P-glycoprotein (P-gp) [1]): 4 nM
Cn1c(=O)c2c(ncn2C)n(C)c1=O [caffeine]	no impact on the P-gp signal	
COc1cccc2c1C(=O)c1c(O)c3c(c(O)c1C2=O)C[C@@](O)(C(=O)CO)C[C@@H]3O[C@H]1C[C@H](N)[C@H](O)[C@H](C)O1 [doxorubicin]	did not appear to interfere with the P-gp signal	
CN(Cc1cnc2nc(N)nc(N)c2n1)c1ccc(C(=O)N[C@@H](CCC(=O)O)C(=O)O)cc1 [methotrexate]	did not appear to interfere with the P-gp signal	
Ivermectin		IC50 (P-glycoprotein (P-gp) [2]; read-out: IC50 values determined by SPA, inhibition of [3H]vinblastine binding to P-gp, KB-V1 membranes, WGA-Ysi beads, PRISM fit): 362 nM
